Where a name gives a salt, the structure may show the parent alone.
The compounds below were run against human TRPV1 (Homo sapiens (Human), UniProt Q8NER1). Settings: read-out: IC50 (μM), antagonist effect against human TRPV1; CHO cells expressing human TrpV1; stimulated with 2.5 μM NADA (EC80); mean of at least three independent experiments.
human TRPV1, sequence (Q8NER1 whole entry): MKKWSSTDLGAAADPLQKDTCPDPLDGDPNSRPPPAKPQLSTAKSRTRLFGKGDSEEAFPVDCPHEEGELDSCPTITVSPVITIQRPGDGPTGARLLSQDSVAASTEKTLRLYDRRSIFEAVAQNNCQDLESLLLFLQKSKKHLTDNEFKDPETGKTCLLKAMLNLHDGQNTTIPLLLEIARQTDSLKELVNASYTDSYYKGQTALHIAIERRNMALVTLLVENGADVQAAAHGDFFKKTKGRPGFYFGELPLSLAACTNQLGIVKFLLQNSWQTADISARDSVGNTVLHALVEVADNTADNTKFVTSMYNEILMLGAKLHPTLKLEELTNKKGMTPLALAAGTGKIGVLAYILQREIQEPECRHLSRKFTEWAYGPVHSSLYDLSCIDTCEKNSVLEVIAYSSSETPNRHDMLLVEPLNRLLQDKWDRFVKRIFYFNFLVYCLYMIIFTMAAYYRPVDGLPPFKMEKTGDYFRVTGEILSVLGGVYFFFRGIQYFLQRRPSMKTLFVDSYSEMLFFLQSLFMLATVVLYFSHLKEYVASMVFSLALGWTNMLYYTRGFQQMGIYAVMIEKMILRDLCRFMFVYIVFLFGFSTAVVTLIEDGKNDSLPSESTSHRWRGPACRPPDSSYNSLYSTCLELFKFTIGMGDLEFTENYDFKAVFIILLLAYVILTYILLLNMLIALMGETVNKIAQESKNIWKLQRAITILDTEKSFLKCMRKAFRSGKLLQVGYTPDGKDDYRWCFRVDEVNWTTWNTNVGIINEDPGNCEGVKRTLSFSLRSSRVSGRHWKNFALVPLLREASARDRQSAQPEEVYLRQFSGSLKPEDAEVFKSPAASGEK

Going from `Oc1ccc(CN[C@H]2C[C@H](Oc3ccc(F)c(C(F)(F)F)c3)C2)c2ccncc12` [Example 23, 5-((((1r,3r)-3-(4-fluoro-3-(trifluoromethyl)phenoxy)cyclobutyl)amino)methyl)isoquinolin-8-ol, HCl] to `Cc1ccc(CN[C@H]2C[C@H](Oc3ccc(F)c(C(F)(F)F)c3)C2)c2ccncc12` [Example 24, (1r,3r)-3-(4-fluoro-3-(trifluoromethyl)phenoxy)-N-((8-methylisoquinolin-5-yl)methyl)cyclobutan-1-amine, HCl], the IC50 rises from 0.232 µM to 0.906 µM (3.9-fold).

Compared with `OCc1ccc(CN[C@H]2C[C@H](Oc3ccc(F)c(C(F)(F)F)c3)C2)c2ccncc12` [Example 25, (5-((((1r,3r)-3-(4-fluoro-3-(trifluoromethyl)phenoxy)cyclobutyl)amino)methyl)isoquinolin-8-yl)methanol, HCl], `Fc1ccc(O[C@H]2C[C@H](NCc3c(F)ccc4cnccc34)C2)cc1OC(F)(F)F` [Example 38, (1r,3r)-3-(4-fluoro-3-(trifluoromethoxy)phenoxy)-N-((6-fluoroisoquinolin-5-yl)methyl)cyclobutan-1-amine, HCl] is 1.9-fold lower in IC50: 0.1 µM for the first, 0.0514 µM for the second. The second is the more potent here.

`Fc1ccc(O[C@H]2C[C@H](NCc3c(F)ccc4cnccc34)C2)c(F)c1` [Example 26, (1r,3r)-3-(2,4-difluorophenoxy)-N-((6-fluoroisoquinolin-5-yl)methyl)cyclobutan-1-amine] and `Fc1cccc(O[C@H]2C[C@H](NCc3c(F)ccc4cnccc34)C2)c1F` [Example 35, (1r,3r)-3-(2,3-difluorophenoxy)-N-((6-fluoroisoquinolin-5-yl)methyl)cyclobutan-1-amine] are within 1.5-fold of each other in IC50: 0.108 µM for the first, 0.128 µM for the second.

First: Fc1ccc(O[C@H]2C[C@H](NCc3c(F)ccc4cnccc34)C2)cc1F [Example 27, (1r,3r)-3-(3,4-difluorophenoxy)-N-((6-fluoroisoquinolin-5-yl)methyl)cyclobutan-1-amine, HCl]
Second: FCc1cc(O[C@H]2C[C@H](NCc3c(F)ccc4cnccc34)C2)ccc1F [Example 41, (1r,3r)-3-(4-fluoro-3-(fluoromethyl)phenoxy)-N-((6-fluoroisoquinolin-5-yl)methyl)cyclobutan-1-amine, HCl]
The IC50 of the first is 3.9-fold lower: 0.023 µM for the first, 0.09 µM for the second.

Compared with `Fc1ccc(O[C@H]2C[C@H](NCc3cccc4cnccc34)C2)cc1Cl` [Example 28, (1r,3r)-3-(3-chloro-4-fluorophenoxy)-N-(isoquinolin-5-ylmethyl)cyclobutan-1-amine, HCl], `CC(C)c1cc(O[C@H]2C[C@H](NCc3cccc4cnccc34)C2)ccc1F` [Example 43, (1r,3r)-3-(4-fluoro-3-isopropylphenoxy)-N-(isoquinolin-5-ylmethyl)cyclobutan-1-amine, HCl] is 1.9-fold higher in IC50: 0.28 µM for the first, 0.528 µM for the second.

`Fc1ccc2cnccc2c1CN[C@H]1C[C@H](Oc2cccc(OC(F)F)c2)C1` [Example 29, (1r,3r)-3-(3-(difluoromethoxy)phenoxy)-N-((6-fluoroisoquinolin-5-yl)methyl)cyclobutan-1-amine, HCl] and `Fc1ccc2cnccc2c1CN[C@H]1C[C@H](Oc2cccc(OC(F)(F)F)c2)C1` [Example 37, (1r,3r)-N-((6-fluoroisoquinolin-5-yl)methyl)-3-(3-(trifluoromethoxy)phenoxy)cyclobutan-1-amine, HCl] are within 1.5-fold of each other in IC50: 0.0623 µM for the first, 0.0813 µM for the second.

First: Fc1ccc2cnccc2c1CN[C@H]1C[C@H](Oc2ccc(OC(F)F)cc2)C1 [Example 30, (1r,3r)-3-(4-(difluoromethoxy)phenoxy)-N-((6-fluoroisoquinolin-5-yl)methyl)cyclobutan-1-amine, HCl]
Second: Fc1ccc2cnccc2c1CN[C@H]1C[C@H](Oc2ccc(OC(F)(F)F)cc2)C1 [Example 36, (1r,3r)-N-((6-fluoroisoquinolin-5-yl)methyl)-3-(4-(trifluoromethoxy)phenoxy)cyclobutan-1-amine, HCl]
The IC50 of the first is 1.9-fold higher: 0.186 µM for the first, 0.0989 µM for the second.

First: Fc1ccc2cnccc2c1CN[C@H]1C[C@H](Oc2ccc3ccccc3c2)C1 [Example 31, (1r,3r)-N-((6-fluoroisoquinolin-5-yl)methyl)-3-(naphthalen-2-yloxy)cyclobutan-1-amine, HCl]
Second: Fc1ccc2ccc(O[C@H]3C[C@H](NCc4c(F)ccc5cnccc45)C3)cc2c1 [Example 32, (1r,3r)-N-((6-fluoroisoquinolin-5-yl)methyl)-3-((7-fluoronaphthalen-2-yl)oxy)cyclobutan-1-amine, HCl]
The IC50 of the first is 2.6-fold higher: 0.264 µM for the first, 0.102 µM for the second.

Compared with `Fc1ccc2cnccc2c1CN[C@H]1C[C@H](Oc2cccc(S(F)(F)(F)(F)F)c2)C1` [Example 33, (1r,3r)-N-((6-fluoroisoquinolin-5-yl)methyl)-3-(3-(pentafluoro-λ^6-sulfaneyl)phenoxy)cyclobutan-1-amine, HCl], `FCC(F)c1cc(O[C@H]2C[C@H](NCc3c(F)ccc4cnccc34)C2)ccc1F` (stereo partly drawn) [Example 40, (1r,3r)-3-(3-(1,2-difluoroethyl)-4-fluorophenoxy)-N-((6-fluoroisoquinolin-5-yl)methyl)cyclobutan-1-amine] is 8.1-fold higher in IC50: 0.0154 µM for the first, 0.124 µM for the second. The first is the more potent here.

`CCOC(=O)c1cccc(O[C@H]2C[C@H](NCc3c(F)ccc4cnccc34)C2)c1` [Example 34, ethyl 3-((1r,3r)-3-(((6-fluoroisoquinolin-5-yl)methyl)amino)cyclobutoxy)benzoate, HCl] and `Fc1ccc(O[C@H]2C[C@H](NCc3c(F)ccc4cnccc34)C2)cc1OC(F)F` [Example 50, (1r,3r)-3-(3-(difluoromethoxy)-4-fluorophenoxy)-N-((6-fluoroisoquinolin-5-yl)methyl)cyclobutan-1-amine] are within 1.5-fold of each other in IC50: 0.0836 µM for the first, 0.0806 µM for the second.

Going from `Fc1ccc2cnccc2c1CN[C@H]1C[C@H](Oc2ccc3c(c2)OC(F)(F)C(F)(F)O3)C1` [Example 39, (1r,3r)-N-((6-fluoroisoquinolin-5-yl)methyl)-3-((2,2,3,3-tetrafluoro-2,3-dihydrobenzo[b][1,4]dioxin-6-yl)oxy)cyclobutan-1-amine, HCl] to `Fc1ccc2cnccc2c1CN[C@H]1C[C@H](Oc2ccc3c(c2)OC(F)(F)O3)C1` [Example 46, (1r,3r)-3-((2,2-difluorobenzo[d][1,3]dioxol-5-yl)oxy)-N-((6-fluoroisoquinolin-5-yl)methyl)cyclobutan-1-amine, HCl], the IC50 rises from 0.0108 µM to 0.0402 µM (3.7-fold). The first is the more potent here.

`Fc1ccc2cnccc2c1CN[C@H]1C[C@H](Oc2ccc(C3CC3(F)F)cc2)C1` (stereo partly drawn) [Example 42, (1r,3r)-3-(4-(2,2-difluorocyclopropyl)phenoxy)-N-((6-fluoroisoquinolin-5-yl)methyl)cyclobutan-1-amine, HCO2H] and `Fc1cc(O[C@H]2C[C@H](NCc3c(F)ccc4cnccc34)C2)ccc1OC(F)F` [Example 51, (1r,3r)-3-(4-(difluoromethoxy)-3-fluorophenoxy)-N-((6-fluoroisoquinolin-5-yl)methyl)cyclobutan-1-amine] are within 1.5-fold of each other in IC50: 0.173 µM for the first, 0.117 µM for the second.

Compared with `Fc1ccc2cnccc2c1CN[C@H]1C[C@H](Oc2cccc(C3(C(F)(F)F)CCO3)c2)C1` (stereo partly drawn) [Example 44, (1r,3r)-N-((6-fluoroisoquinolin-5-yl)methyl)-3-(3-(2-(trifluoromethyl)oxetan-2-yl)phenoxy)cyclobutan-1-amine], `Fc1ccc2cnccc2c1CN[C@H]1C[C@H](Oc2ccnc(C(F)(F)F)c2)C1` [Example 56, (1r,3r)-N-((6-fluoroisoquinolin-5-yl)methyl)-3-((2-(trifluoromethyl)pyridin-4-yl)oxy)cyclobutan-1-amine] is 3.7-fold higher in IC50: 0.0326 µM for the first, 0.119 µM for the second.

Compared with `CC(C)(C)c1c(F)cc(O[C@H]2C[C@H](NCc3c(F)cc(CO)c4cnccc34)C2)cc1F` [Example 45, (5-((((1r,3r)-3-(4-(tert-butyl)-3,5-difluorophenoxy)cyclobutyl)amino)methyl)-6-fluoroisoquinolin-8-yl)methanol], `Cc1c(F)cc(O[C@H]2C[C@H](NCc3c(F)cc(CO)c4cnccc34)C2)cc1F` [Example 53, (5-((((1r,3r)-3-(3,5-difluoro-4-methylphenoxy)cyclobutyl)amino)methyl)-6-fluoroisoquinolin-8-yl)methanol] is 4.1-fold higher in IC50: 0.0188 µM for the first, 0.0769 µM for the second.

`OCc1cc(F)c(CN[C@H]2C[C@H](Oc3ccc4c(c3)OC(F)(F)O4)C2)c2ccncc12` [Example 47, (5-((((1r,3r)-3-((2,2-difluorobenzo[d][1,3]dioxol-5-yl)oxy)cyclobutyl)amino)methyl)-6-fluoroisoquinolin-8-yl)methanol, HCl] and `COc1c(F)cc(O[C@H]2C[C@H](NCc3c(F)cc(CO)c4cnccc34)C2)cc1F` [Example 48, (5-((((1r,3r)-3-(3,5-difluoro-4-methoxyphenoxy)cyclobutyl)amino)methyl)-6-fluoroisoquinolin-8-yl)methanol] are within 1.5-fold of each other in IC50: 0.0238 µM for the first, 0.0345 µM for the second.

Compared with `COc1c(F)cc(O[C@H]2C[C@H](NCc3c(F)ccc4cnccc34)C2)cc1F` [Example 49, (1r,3r)-3-(3,5-difluoro-4-methoxyphenoxy)-N-((6-fluoroisoquinolin-5-yl)methyl)cyclobutan-1-amine], `Cc1c(F)cc(O[C@H]2C[C@H](NCc3c(F)ccc4cnccc34)C2)cc1F` [Example 52, (1r,3r)-3-(3,5-difluoro-4-methylphenoxy)-N-((6-fluoroisoquinolin-5-yl)methyl)cyclobutan-1-amine] is 1.7-fold higher in IC50: 0.0163 µM for the first, 0.0271 µM for the second. The first is the more potent here.

First: Cc1cc(O[C@H]2C[C@H](NCc3c(F)ccc4cnccc34)C2)cc(F)c1F [Example 54, (1r,3r)-3-(3,4-difluoro-5-methylphenoxy)-N-((6-fluoroisoquinolin-5-yl)methyl)cyclobutan-1-amine]
Second: Fc1cc(O[C@H]2C[C@H](NCc3c(F)ccc4cnccc34)C2)cnc1F [Example 57, (1r,3r)-3-((5,6-difluoropyridin-3-yl)oxy)-N-((6-fluoroisoquinolin-5-yl)methyl)cyclobutan-1-amine]
The IC50 of the first is 11-fold lower: 0.0595 µM for the first, 0.656 µM for the second.

First: Fc1ccc(O[C@H]2C[C@H](NCc3c(F)ccc4cnccc34)C2)c(F)n1 [Example 55, (1r,3r)-3-((2,6-difluoropyridin-3-yl)oxy)-N-((6-fluoroisoquinolin-5-yl)methyl)cyclobutan-1-amine]
Second: Fc1ccc2cnccc2c1CN[C@H]1C[C@H](Oc2ccc(C(F)(F)F)nc2F)C1 [Example 58, (1r,3r)-3-((2-fluoro-6-(trifluoromethyl)pyridin-3-yl)oxy)-N-((6-fluoroisoquinolin-5-yl)methyl)cyclobutan-1-amine]
The IC50 of the first is 4.2-fold higher: 0.352 µM for the first, 0.0829 µM for the second. The second is the more potent here.
